{"source": "patent US20040132643A1", "about": "(priority 2004, published 2004)", "key": {"thyroglobulin": {"system": "thyroglobulin", "assay": "RT PCR and northern blot analysis of thyroglobulin expression in thyroid carcinoma cells", "format": "cell-based, human", "experimental": "(§1) RT PCR and Northern blot analysis are described in detail in a number of standard molecular biology reference works, for example Ausubel et al., Short Protocols in Molecular Biology, John Wiley & Sons, 1998.\n(§2) Total RNA was extracted from FR901228-treated and untreated thyroid carcinoma cells using RNA STAT-60 (Tel-Test, Inc.), at 24 hours, 48 hours, and 72 hours following addition of FR901228-containing or control solution to the cell cultures. RNA was also extracted from normal thyroid cells for purposes of comparison. The extracted RNA was used without further modification for northern blots. For RT PCR, the extracted RNA was reverse transcribed into cDNA using standard techniques.\nOligonucleotide primers used for PCR analysis of human thyroglobulin expression were: […]\nUsing these primers, the presence of human thyroglobulin cDNA template is reflected by a 219 bp PCR product."}, "[1]": {"system": "thymidine kinase (TK) promoter enhancer", "assay": "TK-luciferase reporter assay (positive control) in transfected thyroid carcinoma cells", "format": "cell-based, human", "conditions": "1 ng/ml FR901228", "text": "As a positive control, FTC 236 and SW-1736 cells were transfected with a reporter plasmid encoding luciferase operably linked to the thymidine kinase (TK) promoter enhancer. The TK promoter enhancer is a constitutively active promoter element, meaning that it is not thyroid-specific and is fully active in all cell types.\nFor transfection, FTC 236 and SW-1736 cells were exposed to a transfection mixture of 0.5 micrograms of plasmid DNA, 4.5 microliters TransFast transfection reagent (Promega, Madison Wis.) and 200 microliters of RPMI medium. Plasmid DNA was either a TG-luciferase (TG-luc) construct or a TK-luciferase (TK-luc) construct. All transfections were performed in triplicate.\nAfter incubating cells for one hour with the transfection mixture, cells were cultured in the presence or absence of 1 ng/ml FR901228 for two days. Cells were then harvested and lysed, and an extract of cellular protein was obtained. Total protein concentration in the extract was determined using the Bio-Rad protein assay system (Bio-Rad, Richmond Calif.). Luciferase activity was determined using the Luciferase Assay System (Promega, Madison Wis.), and was normalized to total protein concentration. […]"}, "Na+/I- symporter [2]": {"system": "Na+/I- symporter", "assay": "125I iodine accumulation study in thyroid carcinoma cells", "format": "cell-based, human", "experimental": "To evaluate the function of the Na^+/I^− symporter, iodine accumulation studies were performed. FTC 133, FTC 236 SW-1736 and KAT-4 cells were treated with 1 ng/ml FR901228 for two or three days, or left untreated. Cells were then incubated in 0.5 ml of Hanks' Balanced Salt Solution (HBSS; Life Technologies, Inc., Eggenstein, Germany) containing approximately 2 μCi carrier-free Na^125I (DuPont NEN, Boston, Mass.) and 30 μM NaI] ^125I for 10 minutes. For perchlorate studies NaCIO4 was added as a 100X solution in HBSS, to a final concentration of 30 and 100 μM, immediately after the addition of radiolabeled iodine. Excess radiolabeled iodine was then removed, and the amount of ^125I accumulated in the cells was determined by gamma counting."}, "Na+/I- symporter [3]": {"system": "Na+/I- symporter", "assay": "RT PCR and northern blot analysis of Na+/I- symporter expression in thyroid carcinoma cells", "format": "cell-based, human", "experimental": "as §1, §2\nOligonucleotide primers used for PCR analysis of human Na^+/I^− symporter expression were:\nUsing these primers, the presence of human Na^+/I^− symporter cDNA template is reflected by a 303 bp PCR product."}, "KAT-4 cells": {"system": "KAT-4 cells", "conditions": "1 ng/ml FR901228 for 72 hours", "experimental": "(§3) FTC 133 and FTC 236 cells were derived from cultures obtained from the primary tumor (FTC 133) and a nodal metastasis (FTC 236) of a human follicular thyroid carcinoma. […] Anaplastic thyroid carcinoma lines SW-1736 and KAT-4 were derived from primary cultures of human anaplastic thyroid carcinoma tumors.\n(§4) Each of these four cell lines was exposed to varying concentrations of FR901228 (0.01 ng/ml, 0.1 ng/ml, 1 ng/ml, 10 ng/ml) for 72 hours, following which cell viability was determined using the 3-[4,5-dimethylthiazol-2-yl]-2,5-diphenyl tetrazoliumbromide (MTT) assay, as described in Mosmann, J Immunol Methods 65:55-63, 1983, and Den Boer et al., Br. J. Haem. 105: 876-882, 2000. The MTT assay is a colorimetric assay of the loss of mitochondrial metabolic activity associated with cell death."}, "FTC 133 cells": {"system": "FTC 133 cells", "conditions": "1 ng/ml FR901228 for 72 hours", "experimental": "as §3, §4"}, "SW-1736 cells": {"system": "SW-1736 cells", "conditions": "1 ng/ml FR901228 for 72 hours", "experimental": "as §3, §4"}, "FTC 236 cells": {"system": "FTC 236 cells", "conditions": "1 ng/ml FR901228 for 72 hours", "experimental": "as §3, §4"}, "histone deacetylase": {"system": "histone deacetylase", "assay": "Histone acetylation by immunofluorescence microscopy (anti-acetylated histone H3) in thyroid carcinoma cells", "format": "cell-based, human", "conditions": "1 ng/ml FR901228 for 72 hours", "experimental": "Histone acetylation was detected by immunofluorescence microscopy. In this experimental approach, fixed cells are exposed to a primary antibody that specifically binds to acetylated histones, and then exposed to an FITC-labeled secondary antibody that binds to the primary antibody.\nFTC 236 and SW-1736 cells were cultured as described in Example 1, and treated for 72 hours with 1 ng/ml FR901228. Control FTC 236 and SW-1736 received no FR901228, but were otherwise treated identically to the FR901228-exposed cells. After 72 hours, each culture was treated with trypsin, harvested, and subjected to low speed centrifugation to form a cell pellet. Cells from each pellet were placed on microscope slides and fixed with 95% ethanol/5% acetic acid for one minute at room temperature. After fixation, slides were washed twice with phosphate buffered saline (PBS) for 15 minutes, treated with 8% bovine serum albumin in PBS for one hour at room temperature, and washed 15 minutes in PBS.\nThe fixed cells were then incubated overnight at 4° C. with 5 ug/ml anti-alpha acetylated histone H3 in 2% bovine serum albumin in PBS (antibody obtained from Upstate Biotechnology, Lake Placid N.Y.). Subsequently, cells were washed twice with PBS for five minutes at room temperature and then incubated with horse anti-rabbit FITC-conjugated secondary antibody (from Vector Labs, Burlingame Calif.). […]"}, "[4]": {"system": "TG promoter-enhancer element", "assay": "TG-luciferase reporter assay in transfected thyroid carcinoma cells", "format": "cell-based, human", "conditions": "1 ng/ml FR901228; for enhancement in luciferase activity over that observed in untreated cells / enhancement over RLU observed in untreated cells: TG-luc"}, "[5]": {"conditions": "ATC cells, 72 hours of FR901228 exposure"}, "[6]": {"conditions": "FTC cells, 72 hours of FR901228"}, "[7]": {"conditions": "FTC cells, RT PCR and northern blot"}}, "data": [{"smiles": "C/C=C1\\NC(=O)[C@H]2CSSCC/C=C/[C@H](CC(=O)N[C@H](C(C)C)C(=O)N2)OC(=O)[C@H](C(C)C)NC1=O", "note": "[FR901228]", "values": [{"measurement": "time after FR901228 at which increased TG expression was first observed", "setting": "thyroglobulin; ATC cells", "result": 48, "unit": "h"}, {"measurement": "TG expression after 72 hours", "setting": "thyroglobulin; [5]", "result": "further increases"}, {"measurement": "TG expression after 72 hours", "setting": "thyroglobulin; [6]", "result": "further increases"}, {"measurement": "time following addition of FR901228 at which increased TG expression was detected", "setting": "thyroglobulin; [7]", "result": "≤ 24", "unit": "h"}, {"measurement": "effect on luciferase activity in TK luc-transfected cells", "setting": "[1]", "result": "no effect"}, {"measurement": "iodine (125I) accumulation", "setting": "Na+/I- symporter [2]; four cell lines (FTC 133, FTC 236, SW-1736, KAT-4), 1 ng/ml FR901228, two and three days", "result": "Marked increases"}, {"measurement": "time after FR901228 at which increased Na+/I- symporter expression was first observed", "setting": "Na+/I- symporter [3]; ATC cells", "result": 48, "unit": "h"}, {"measurement": "Na+/I- symporter expression after 72 hours", "setting": "Na+/I- symporter [3]; [5]", "result": "further increases"}, {"measurement": "Na+/I- symporter expression after 72 hours", "setting": "Na+/I- symporter [3]; [6]", "result": "further increases"}, {"measurement": "time following addition of FR901228 at which increased Na+/I- symporter expression was detected", "setting": "Na+/I- symporter [3]; [7]", "result": "≤ 24", "unit": "h"}, {"measurement": "cytotoxicity (cell viability, MTT assay)", "setting": "KAT-4 cells", "result": "not significantly cytotoxic"}, {"measurement": "cytotoxicity (cell viability, MTT assay)", "setting": "FTC 133 cells", "result": "not significantly cytotoxic"}, {"measurement": "cytotoxicity (cell viability, MTT assay)", "setting": "SW-1736 cells", "result": "not significantly cytotoxic"}, {"measurement": "cytotoxicity (cell viability, MTT assay)", "setting": "FTC 236 cells", "result": "not significantly cytotoxic"}, {"measurement": "histone acetylation (nuclear fluorescence) relative to the control cells", "setting": "histone deacetylase; FTC 236 cells", "result": "marked increase"}, {"measurement": "histone acetylation (nuclear fluorescence) relative to the control cells", "setting": "histone deacetylase; SW-1736 cells", "result": "marked increase"}, {"measurement": "relative luciferase units (RLU) in TG-luc transfected cells, TK luc = 100%", "setting": "[4]; FTC 133 cells", "result": "about 1000%"}, {"measurement": "enhancement in luciferase activity over that observed in untreated cells", "setting": "[4]; FTC 133 cells", "result": "greater than tenfold"}, {"measurement": "relative luciferase units (RLU) in TG-luc transfected cells, TK luc = 100%", "setting": "[4]; FTC 236 cells", "result": "about 1000%"}, {"measurement": "enhancement in luciferase activity over that observed in untreated cells", "setting": "[4]; FTC 236 cells", "result": "greater than tenfold"}, {"measurement": "relative luciferase units (RLU) in TG-luc transfected cells, TK luc = 100%", "setting": "[4]; KAT-4 cells", "result": "400-500%"}, {"measurement": "enhancement over RLU observed in untreated cells", "setting": "[4]; KAT-4 cells", "result": "greater than ten-fold"}, {"measurement": "relative luciferase units (RLU) in TG-luc transfected cells, TK luc = 100%", "setting": "[4]; SW-1736 cells", "result": "400-500%"}, {"measurement": "enhancement over RLU observed in untreated cells", "setting": "[4]; SW-1736 cells", "result": "greater than ten-fold"}]}, {"smiles": "[O-][Cl+3]([O-])([O-])O", "note": "[sodium perchlorate]", "values": [{"measurement": "inhibition of iodine (125I) accumulation", "setting": "Na+/I- symporter [2]; FR901228-treated thyroid carcinoma cells, perchlorate 30 and 100 μM", "result": "inhibited in a dose-dependent manner"}]}]}
